The structures appear in SMILES notation.

Consider four compounds from patent publication US6773896B2, “Method for direct measurement of coagulation factor VIIa activity in plasma” (Warner-Lambert Company, priority 2001, dated 2004).

Series [1] has as its target T1, FVIIa (Homo sapiens, UniProt P08709).
T1 construct: purchased American Diagnostica, Greenwich, Conn
The experiment in a line: Ex vivo FVIIa activity assay in plasma of hypercholesterolemic rabbits (balloon-induced injury model of thrombosis). The arrangement: species or system rabbit. As to conditions: IV bolus 0.3 and 1.0 mg/kg, 3 minutes after administration. The method, then:
(§1) The FVIIa activity was measured in plasma collected from hypercholesterolemic rabbits in a balloon-induced injury model of thrombosis. The rabbits received two doses of 7-[(R)-3-(3-Amino-benzyl)-4-(4-amino-phenyl)-4-methyl-2,5-dioxo-imidazolidin-1-ylmethyl]-naphthalene-2-carboxamidine, IV bolus, 0.3 mg/kg (n=5) and 1.0 mg/kg (n=6). Blood samples were collected before and 3 minutes after administration, followed by plasma preparation. Plasma samples were extracted using CH3CN and reconstituted in Tris-buffer. The protocol is the same as ex vivo study of 2-[6-(3-Carbamimidoyl-phenoxy)-3,5-difluoro-4-(1-methyl-3-phenyl-propylamino)-pyridin-2-yloxy]-5-dimethylamino-4-methyl-benzoic acid. The plasma levels of 7-[(R)-3-(3-Amino-benzyl)-4-(4-amino-phenyl)-4-methyl-2,5-dioxo-imidazolidin-1-ylmethyl]-naphthalene-2-carboxamidine were calculated based on the test plasma FVIIa activity and an IC50 standard curve. […]
(§2) The inhibitory effect and plasma concentration of 7-[(R)-3-(3-Amino-benzyl)-4-(4-amino-phenyl)-4-methyl-2,5-dioxo-imidazolidin-1-ylmethyl]-naphthalene-2-carboxamidine was determined in balloon-induced injury model of thrombosis in hypercholesterolemic rabbits. […] The inhibitory effect of 7-[(R)-3-(3-Amino-benzyl)-4-(4-amino-phenyl)-4-methyl-2,5-dioxo-imidazolidin-1-ylmethyl]-naphthalene-2-carboxamidine was measured by FVIIa activity assay. […]

A short description of series [2]: Plasma level in hypercholesterolemic rabbits calculated from FVIIa activity. It counts as in vivo, rabbit. As to conditions: IV bolus 0.3 and 1.0 mg/kg, 3 minutes after administration. The method, then:
as §1, §2

The target of a further series is thrombin (Homo sapiens, UniProt P00734). Description: Inhibition of thrombin (stated potency). The series is classed as biochemical.
For the next series, the target named is T2, FVIIa/TF complex (Homo sapiens, UniProt P08709).
T2 construct: purchased American Diagnostica, Greenwich, Conn
T2 sequence (P13726 33-295 partner, one chain of several): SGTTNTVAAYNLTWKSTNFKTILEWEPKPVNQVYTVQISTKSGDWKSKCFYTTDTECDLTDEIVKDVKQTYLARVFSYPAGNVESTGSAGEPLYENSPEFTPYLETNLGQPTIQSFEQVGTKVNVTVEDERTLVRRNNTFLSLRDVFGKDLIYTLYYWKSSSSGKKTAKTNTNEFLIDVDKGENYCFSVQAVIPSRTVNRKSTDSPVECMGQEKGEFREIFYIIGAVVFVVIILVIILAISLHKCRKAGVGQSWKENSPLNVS
The experiment in a line: In vitro one-stage FVIIa activity assay in human plasma (Spectrozyme FVIIa cleavage). The series is classed as biochemical. As to conditions: for Effect on FVIIa activity in human plasma: 0.625% pooled human plasma, 10 nM FVIIa, 15 nM TF, vs own control. The method, then:
The proteolytic activity of FVIIa was measured by cleavage of paranitroanilide (pNA) substrate (Spectrozyme FVIIa) in a 96-well microtiter plate.
A series of samples containing enzyme inhibitors (0-300 μM) were added to well in a 96-well microtiter plate containing Tris-buffer ([…] Tris, pH 7.4, 100 mM NaCl), 0.625% plasma, 0.1% BSA. After addition of FVIIa (10 nM in final concentration), the plate was incubated for 15 minutes at 37° C. Then the TF (15 nM in final concentration) and CaCl2 (5 mM in final concentration) were added, and the plate was incubated for additional 15 minutes at 37° C. again. After incubation, the substrate (Spectrozyme FVIIa) was added at a final concentration of 0.5 mM to result in a final volume of 200 μL/well. The rate of change in absorbance at 405 nm was monitored by a Softmax plate reader (Molecular Devices).
Above four inhibitors were evaluated in pooled human plasma for their inhibitory effects on FVIIa activity. Effects of FVIIai, 2-[6-(3-Carbamimidoyl-phenoxy)-3,5-difluoro-4-(1-methyl-3-phenyl-propylamino)-pyridin-2-yloxy]-5-dimethylamino-4-methyl-benzoic acid, ({2-(5-Carbamimidoyl-2-hydroxy-phenoxy)-3,5-difluoro-6-[3-(1-methyl-4,5-dihydro-1H-imidazol-2-yl)-phenoxy]-pyridin-4-yl}-methyl-amino)-acetic acid, and (S)-4-[3-(cyclopentylmethylamino)-2-[(2-naphthalenylsulfony)amino]-3-oxopropyl]benzenecarboximidic acid hydrazide on FVIIa activity were compared with their own control group. The activity of FVIIa was obtained with a final concentration of 0.625% human plasma, 10 nM FVIIa, 15 nM TF, 5 mM CaCl2, and 0.5 mM SPZFVIIa.

Series [3] is described as follows: Ex vivo study in rabbit plasma: plasma concentration calculated from FVIIa activity. As to conditions: 3 mg/kg IV bolus, 1-60 min, n=3, calculated from FVIIa activity and IC50 standard curve. The method, then: (§3) The FVIIa activity was measured in the plasma collected from rabbits that received 2-[6-(3-Carbamimidoyl-phenoxy)-3,5-difluoro-4-(1-methyl-3-phenyl-propylamino)-pyridin-2-yloxy]-5-dimethylamino-4-methyl-benzoic acid, IV bolus, 3 mg/kg (n=3). Blood samples were collected before and 1, 5, 10, 30, and 60 minutes after the onset of administration, followed by plasma preparation. 2-[6-(3-Carbamimidoyl-phenoxy)-3,5-difluoro-4-(1-methyl-3-phenyl-propylamino)-pyridin-2-yloxy]-5-dimethylamino-4-methyl-benzoic acid in plasma was extracted using 4 volumes of CH3CN to 1 volume of plasma. Precipitated proteins were removed by centrifugation at 2000 g for 5 minutes. Solvent was decanted into small glass tubes and dried at 37° C. under a stream of nitrogen, then reconstituted in Tris-buffer. The method of FVIIa activity assay is the same as in vitro study. FVIIa activity was determined by measuring the rate of absorbance change at 405 nm due to cleavage of the spectrozyme FVIIa (0.5 mM) by FVIIa/TF complex. Plasma concentrations of 2-[6-(3-Carbamimidoyl-phenoxy)-3,5-difluoro-4-(1-methyl-3-phenyl-propylamino)-pyridin-2-yloxy]-5-dimethylamino-4-methyl-benzo acid were determined by using a standards inhibition curve that were generated from rabbit plasma containing known amount of inhibitor and processed identically to test samples. […]

The target in a further series is T3, human FVIIa (Homo sapiens, UniProt P08709).
T3 sequence (P08709 213-466 limits assumed): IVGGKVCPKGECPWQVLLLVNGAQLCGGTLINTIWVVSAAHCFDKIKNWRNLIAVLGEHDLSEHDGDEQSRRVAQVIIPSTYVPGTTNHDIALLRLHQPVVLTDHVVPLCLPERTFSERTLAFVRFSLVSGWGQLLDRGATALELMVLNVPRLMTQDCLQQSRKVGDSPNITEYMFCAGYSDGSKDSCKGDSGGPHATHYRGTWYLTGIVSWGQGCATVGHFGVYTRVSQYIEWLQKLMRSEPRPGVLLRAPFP
T3 sequence (P08709 61-212 partner limits assumed): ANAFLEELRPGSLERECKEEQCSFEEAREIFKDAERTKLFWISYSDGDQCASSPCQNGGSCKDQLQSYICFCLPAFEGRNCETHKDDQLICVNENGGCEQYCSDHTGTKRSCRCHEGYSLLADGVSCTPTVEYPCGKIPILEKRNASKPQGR
Description: Inhibition of human FVIIa (stated potency). The series is classed as biochemical. As to conditions: read-out: IC50 against human FVIIa.

Series [4] concerns the target T1, FVIIa. The experiment in a line: Ex vivo FVIIa activity assay in plasma from treated rabbits, two plasma concentrations. To be noted: rabbit, 3 mg/kg IV bolus. The method, then: as §3

T1 sequence (P13726 33-295 partner, one chain of several): as the sequence (P13726 33-295 partner, one chain of several) above

Turning to `C[C@@]1(c2ccc(N)cc2)C(=O)N(Cc2ccc3ccc(C(=N)N)cc3c2)C(=O)N1Cc1cccc(N)c1` [7-[(R)-3-(3-Amino-benzyl)-4-(4-amino-phenyl)-4-methyl-2,5-dioxo-imidazolidin-1-ylmethyl]-naphthalene-2 carboxamidine], the “Ex vivo inhibitory effect on FVIIa activity” value on FVIIa [1] is on record as “dose-dependent changes in inhibitory effect”. Also, the Plasma level result in series [2] was “dose-dependent changes”.

`N=C(NN)c1ccc(C[C@H](NS(=O)(=O)c2ccc3ccccc3c2)C(=O)NCC2CCCC2)cc1` [(S)-4-[3-(cyclopentylmethylamino)-2-[(2-naphthalenylsulfonyl)amino]-3-oxoprpoyl]-benzenecarboximidic acid hydrazide]: the concentration for half-maximal inhibition (IC50) at thrombin (read-out: IC50 against thrombin) is 2 nM. Besides, the Ki on thrombin (read-out: Ki against thrombin) was found to be 0.38 nM. Besides, at FVIIa/TF complex (100 nM), the “Effect on FVIIa activity in human plasma” value is reported as “did not alter FVIIa activity”.

As to `CN1CCN=C1c1cccc(Oc2nc(Oc3cc(C(=N)N)ccc3O)c(F)c(N(C)CC(=O)O)c2F)c1` [({2-(5-Carbamimidoyl-2-hydroxy-phenoxy)-3,5-difluoro-6-[3-(1-methyl-4,5-dihydro-1H-imidazol-2-yl)-phenoxy]-pyridin-4-yl}-methyl-amino)-acetic acid], the “Effect on FVIIa activity in human plasma” value at FVIIa/TF complex (100 nM) was “did not alter FVIIa activity”.

Take `Cc1cc(Oc2nc(Oc3cccc(C(=N)N)c3)c(F)c(NC(C)CCc3ccccc3)c2F)c(C(=O)O)cc1N(C)C` (centres unmarked) [2-[6-(3-Carbamimidoyl-phenoxy)-3,5-difluoro-4-(1-methyl-3-phenyl-propylamino)-pyridin-2-yloxy]-5-dimethylamino-4-methyl-benzoic acid]: at FVIIa/TF complex (300 nM), the “Effect on FVIIa activity in human plasma” value is listed as “significantly decreased FVIIa activity”. For the same compound, on FVIIa/TF complex (human plasma, series of concentrations), the “Inhibition on FVIIa activity in human plasma over a series of concentrations” value is “dose-dependent inhibition”. In series [3], the “Plasma concentration after IV bolus administration” value is recorded as “time-dependent change in plasma concentration”. In addition, the IC50 at human FVIIa turned out to be 15 nM. Moreover, the “Ex vivo inhibitory effect on FVIIa activity with 1.25% vs 0.625% plasma in the assay” value at FVIIa [4] is “same inhibitory effect”.
